Several values for one entry are separate records, joined by “and”; a condition that tells them apart may be missing. Equal entries are not always repeated. Activity calls are given as the source filed them.
Assays:
Tumor necrosis factor = Tumor necrosis factor (Homo sapiens, UniProt P01375); assay: TNFa-triggered NF-kB activation inhibitors, SAR follow-up, cell-based, revised (AID 2337); format: functional
[1] = biological target: Nucleotide-binding oligomerization domain-containing protein 2 (Homo sapiens, UniProt Q9HC29); assay: PubChem AID 2334; format: functional
Sequence of Nucleotide-binding oligomerization domain-containing protein 2 (Q9HC29 whole entry, the tested form may be a part): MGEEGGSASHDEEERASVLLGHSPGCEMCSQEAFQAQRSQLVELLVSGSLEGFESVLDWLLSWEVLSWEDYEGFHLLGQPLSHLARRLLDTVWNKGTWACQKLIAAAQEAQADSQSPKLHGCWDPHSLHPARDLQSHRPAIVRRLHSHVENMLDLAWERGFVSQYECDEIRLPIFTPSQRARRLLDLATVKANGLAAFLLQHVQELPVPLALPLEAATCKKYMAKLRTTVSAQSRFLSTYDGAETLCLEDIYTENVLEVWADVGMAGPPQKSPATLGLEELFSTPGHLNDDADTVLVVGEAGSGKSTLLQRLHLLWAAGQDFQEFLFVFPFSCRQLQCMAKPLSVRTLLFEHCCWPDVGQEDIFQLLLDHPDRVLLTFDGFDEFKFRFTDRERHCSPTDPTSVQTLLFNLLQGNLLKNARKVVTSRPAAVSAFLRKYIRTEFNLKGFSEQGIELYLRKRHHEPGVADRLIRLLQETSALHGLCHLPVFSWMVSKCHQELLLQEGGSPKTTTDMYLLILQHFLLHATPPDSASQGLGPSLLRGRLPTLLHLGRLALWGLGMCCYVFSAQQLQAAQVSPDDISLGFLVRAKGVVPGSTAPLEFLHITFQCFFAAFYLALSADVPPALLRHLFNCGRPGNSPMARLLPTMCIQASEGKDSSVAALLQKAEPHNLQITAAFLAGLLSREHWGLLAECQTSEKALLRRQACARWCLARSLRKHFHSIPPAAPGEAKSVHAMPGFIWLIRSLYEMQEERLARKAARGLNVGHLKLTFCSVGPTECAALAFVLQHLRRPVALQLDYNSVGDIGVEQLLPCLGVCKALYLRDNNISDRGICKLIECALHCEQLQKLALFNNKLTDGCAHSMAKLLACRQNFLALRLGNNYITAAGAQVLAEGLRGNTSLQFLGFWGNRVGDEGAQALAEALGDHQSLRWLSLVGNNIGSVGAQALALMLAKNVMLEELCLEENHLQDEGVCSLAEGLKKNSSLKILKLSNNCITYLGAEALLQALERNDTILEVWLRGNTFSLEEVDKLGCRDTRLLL

HEK293 = assay: cells; conditions: Homo sapiens;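 note: cells exposed to compound for 14 hours overnight before viability readout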
[2] = biological target: T1, Nucleotide-binding oligomerization domain-containing protein 1 (Homo sapiens, UniProt Q9Y239); assay: NOD1 signaling inhibitors, SAR follow-up, revised (AID 2333); format: functional
T1 sequence (Q9Y239 whole entry): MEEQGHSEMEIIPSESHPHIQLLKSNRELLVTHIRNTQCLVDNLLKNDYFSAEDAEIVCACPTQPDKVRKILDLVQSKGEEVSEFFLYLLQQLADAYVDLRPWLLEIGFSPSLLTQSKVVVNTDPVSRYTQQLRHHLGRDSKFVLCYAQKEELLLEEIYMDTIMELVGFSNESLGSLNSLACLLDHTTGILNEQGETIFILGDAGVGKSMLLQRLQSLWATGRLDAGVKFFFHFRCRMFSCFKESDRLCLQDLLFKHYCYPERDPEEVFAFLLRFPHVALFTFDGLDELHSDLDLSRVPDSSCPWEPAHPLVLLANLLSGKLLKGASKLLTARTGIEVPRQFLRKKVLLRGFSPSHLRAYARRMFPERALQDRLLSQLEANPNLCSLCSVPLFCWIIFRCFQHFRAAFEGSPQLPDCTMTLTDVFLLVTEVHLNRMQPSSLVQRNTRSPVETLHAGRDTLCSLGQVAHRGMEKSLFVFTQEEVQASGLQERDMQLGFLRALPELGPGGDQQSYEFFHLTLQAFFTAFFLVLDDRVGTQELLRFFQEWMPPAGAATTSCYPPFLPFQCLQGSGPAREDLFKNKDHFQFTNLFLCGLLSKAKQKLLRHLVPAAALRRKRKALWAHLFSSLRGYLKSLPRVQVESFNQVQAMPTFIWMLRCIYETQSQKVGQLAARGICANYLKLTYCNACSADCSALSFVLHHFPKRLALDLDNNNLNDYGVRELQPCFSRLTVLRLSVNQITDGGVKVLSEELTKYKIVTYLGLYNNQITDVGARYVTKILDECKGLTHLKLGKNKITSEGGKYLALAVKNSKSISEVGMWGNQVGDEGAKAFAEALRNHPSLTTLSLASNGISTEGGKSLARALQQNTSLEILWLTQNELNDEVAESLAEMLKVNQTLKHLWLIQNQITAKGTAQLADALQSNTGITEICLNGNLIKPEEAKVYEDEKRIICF

[3] = biological target: Phosphoethanolamine/phosphocholine phosphatase (Homo sapiens, UniProt Q8TCT1); assay: SAR assay for compounds that inhibit PHOSPHO1. [Related pubchem assays (depositor defined):AID1545, AID1565, AID1574]
Sequence of Phosphoethanolamine/phosphocholine phosphatase (Q8TCT1 whole entry): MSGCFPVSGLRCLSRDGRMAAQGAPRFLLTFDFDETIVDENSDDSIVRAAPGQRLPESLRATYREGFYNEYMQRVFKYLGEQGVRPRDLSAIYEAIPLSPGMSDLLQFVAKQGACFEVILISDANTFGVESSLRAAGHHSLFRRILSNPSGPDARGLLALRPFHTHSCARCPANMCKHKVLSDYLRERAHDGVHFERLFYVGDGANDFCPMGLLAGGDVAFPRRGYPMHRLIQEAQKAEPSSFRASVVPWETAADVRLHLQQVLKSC

Phosphomannomutase 2 = biological target: T2, Phosphomannomutase 2 (Homo sapiens, UniProt O15305); assay: Counter screen SAR assay for PMM2 inhibitors via a fluorescence intensity assay. [Related pubchem assays (depositor defined):AID1545, AID1574]
T2 sequence (O15305 whole entry): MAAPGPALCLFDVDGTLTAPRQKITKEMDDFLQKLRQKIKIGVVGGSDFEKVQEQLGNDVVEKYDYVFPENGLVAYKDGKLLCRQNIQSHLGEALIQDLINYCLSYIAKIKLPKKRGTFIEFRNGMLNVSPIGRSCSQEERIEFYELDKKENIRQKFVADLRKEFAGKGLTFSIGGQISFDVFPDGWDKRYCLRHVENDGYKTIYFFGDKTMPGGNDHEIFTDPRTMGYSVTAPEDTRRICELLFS

[4] = biological target: T3, Mannose-6-phosphate isomerase (Homo sapiens, UniProt P34949); assay: PMI enzyme inhibitors, confirmation, biochemical, fluorescence intensity (AID 1535)
T3 sequence (P34949 whole entry): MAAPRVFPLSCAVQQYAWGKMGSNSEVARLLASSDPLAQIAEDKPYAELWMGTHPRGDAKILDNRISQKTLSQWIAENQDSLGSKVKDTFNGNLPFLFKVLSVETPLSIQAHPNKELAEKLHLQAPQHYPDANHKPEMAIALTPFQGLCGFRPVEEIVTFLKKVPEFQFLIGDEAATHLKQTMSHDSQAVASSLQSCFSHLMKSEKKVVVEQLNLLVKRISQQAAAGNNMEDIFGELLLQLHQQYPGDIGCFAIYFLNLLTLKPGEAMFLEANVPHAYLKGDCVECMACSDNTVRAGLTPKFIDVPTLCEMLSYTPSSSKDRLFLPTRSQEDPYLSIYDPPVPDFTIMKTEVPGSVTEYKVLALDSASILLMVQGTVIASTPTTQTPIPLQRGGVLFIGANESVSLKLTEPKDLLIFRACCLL

Cytochrome P450 2C9 = Cytochrome P450 2C9 (Homo sapiens, UniProt P11712)
Sequence of Cytochrome P450 2C9 (P11712 whole entry): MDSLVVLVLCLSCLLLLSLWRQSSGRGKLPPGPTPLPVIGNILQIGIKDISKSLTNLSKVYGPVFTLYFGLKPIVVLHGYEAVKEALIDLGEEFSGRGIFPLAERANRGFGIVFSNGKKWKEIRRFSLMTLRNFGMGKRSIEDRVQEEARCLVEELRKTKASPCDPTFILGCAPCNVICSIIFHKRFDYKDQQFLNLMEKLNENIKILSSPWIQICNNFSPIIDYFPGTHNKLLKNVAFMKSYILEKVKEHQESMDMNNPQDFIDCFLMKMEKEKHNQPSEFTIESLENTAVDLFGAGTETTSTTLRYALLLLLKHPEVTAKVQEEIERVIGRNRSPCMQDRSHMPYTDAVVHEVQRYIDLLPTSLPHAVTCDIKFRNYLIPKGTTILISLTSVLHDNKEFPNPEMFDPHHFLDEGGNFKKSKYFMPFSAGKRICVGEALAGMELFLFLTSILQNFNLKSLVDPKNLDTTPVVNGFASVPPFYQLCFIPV

Cytochrome P450 3A4 = Cytochrome P450 3A4 (Homo sapiens, UniProt P08684);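 note: CYP3A4 tested as one member of a cytochrome P450 panel screen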
Sequence of Cytochrome P450 3A4 (P08684 whole entry): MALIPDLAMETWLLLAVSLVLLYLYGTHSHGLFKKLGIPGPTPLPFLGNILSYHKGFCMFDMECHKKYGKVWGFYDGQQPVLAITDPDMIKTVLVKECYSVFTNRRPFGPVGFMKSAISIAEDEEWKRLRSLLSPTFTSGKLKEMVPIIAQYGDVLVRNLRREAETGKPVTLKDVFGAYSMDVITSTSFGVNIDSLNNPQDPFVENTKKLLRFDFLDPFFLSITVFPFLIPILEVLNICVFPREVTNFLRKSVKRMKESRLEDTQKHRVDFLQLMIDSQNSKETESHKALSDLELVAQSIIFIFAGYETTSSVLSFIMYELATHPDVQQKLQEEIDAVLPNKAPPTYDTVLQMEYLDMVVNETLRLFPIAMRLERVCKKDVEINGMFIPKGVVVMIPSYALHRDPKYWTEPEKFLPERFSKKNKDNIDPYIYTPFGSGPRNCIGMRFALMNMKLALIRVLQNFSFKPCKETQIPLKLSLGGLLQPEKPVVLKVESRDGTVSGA

Cytochrome P450 2C19 = Cytochrome P450 2C19 (Homo sapiens, UniProt P33261); assay: Cytochrome panel assay with activity outcomes. Panel member name: p450-cyp2c19 Compounds with AC50 equal or less than 10 uM are considered active; format: functional; conditions: read-out: AC50
Sequence of Cytochrome P450 2C19 (P33261 whole entry): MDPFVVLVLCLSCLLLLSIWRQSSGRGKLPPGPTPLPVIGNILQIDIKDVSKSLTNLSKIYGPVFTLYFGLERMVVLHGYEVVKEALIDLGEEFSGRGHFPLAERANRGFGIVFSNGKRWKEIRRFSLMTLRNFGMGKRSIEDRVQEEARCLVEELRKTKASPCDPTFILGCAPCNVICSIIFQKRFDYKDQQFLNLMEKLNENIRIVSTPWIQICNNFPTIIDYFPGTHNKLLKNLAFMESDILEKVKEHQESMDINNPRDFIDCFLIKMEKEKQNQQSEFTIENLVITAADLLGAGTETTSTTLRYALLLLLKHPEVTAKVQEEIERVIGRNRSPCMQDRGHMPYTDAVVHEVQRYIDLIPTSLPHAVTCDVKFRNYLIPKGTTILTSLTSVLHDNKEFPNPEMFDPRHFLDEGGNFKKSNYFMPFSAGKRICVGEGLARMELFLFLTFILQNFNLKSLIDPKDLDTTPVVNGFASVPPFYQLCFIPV

[5] = biological target: T4, Kappa-type opioid receptor (Homo sapiens, UniProt P41145); assay: SAR analysis of small molecule antagonists of the kappa opioid receptor via a luminescent beta-arrestin assay - Set 3. [Related pubchem assays (depositor defined):AID1777, AID1778, AID1785, AID1786, AID1966, AID2133, AID2136, AID2285, AID2495]; format: functional
T4 sequence (P41145 whole entry): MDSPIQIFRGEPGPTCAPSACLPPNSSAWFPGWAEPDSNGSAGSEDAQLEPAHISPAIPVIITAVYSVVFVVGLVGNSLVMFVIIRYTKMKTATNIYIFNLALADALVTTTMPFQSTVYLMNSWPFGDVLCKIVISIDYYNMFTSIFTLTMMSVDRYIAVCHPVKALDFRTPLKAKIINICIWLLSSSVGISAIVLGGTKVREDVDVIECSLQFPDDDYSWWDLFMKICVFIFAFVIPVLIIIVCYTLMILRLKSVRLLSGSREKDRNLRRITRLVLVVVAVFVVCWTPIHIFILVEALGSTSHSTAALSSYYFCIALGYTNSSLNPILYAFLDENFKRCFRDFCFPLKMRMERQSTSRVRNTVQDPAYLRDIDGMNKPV

Mu-type opioid receptor = Mu-type opioid receptor (Homo sapiens, UniProt P35372); assay: SAR Analysis of Antagonists of the MOR Receptor using an Image-Based Assay - Set 3. [Related pubchem assays (depositor defined):AID1777, AID1785, AID1786, AID1966, AID2133, AID2136, AID2284, AID2285, AID2420]; format: functional
Sequence of Mu-type opioid receptor (P35372 whole entry): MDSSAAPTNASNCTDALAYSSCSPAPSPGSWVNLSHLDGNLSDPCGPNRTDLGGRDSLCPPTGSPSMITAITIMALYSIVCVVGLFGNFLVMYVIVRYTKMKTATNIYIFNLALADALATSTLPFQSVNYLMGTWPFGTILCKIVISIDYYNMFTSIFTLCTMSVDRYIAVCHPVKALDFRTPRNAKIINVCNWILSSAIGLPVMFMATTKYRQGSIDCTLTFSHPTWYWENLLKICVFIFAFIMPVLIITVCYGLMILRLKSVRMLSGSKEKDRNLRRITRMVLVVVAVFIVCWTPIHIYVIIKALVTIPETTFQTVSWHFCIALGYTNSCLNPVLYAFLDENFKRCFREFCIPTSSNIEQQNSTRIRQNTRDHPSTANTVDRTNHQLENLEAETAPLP

[6] = biological target: Delta-type opioid receptor (Homo sapiens, UniProt P41143); assay: SAR Analysis of Antagonists of the DOR Receptor using an Image-Based Assay - Set 3. [Related pubchem assays (depositor defined):AID1777, AID1785]; format: functional;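 note: U2OS cells expressing DOR1 and beta-arrestin GFP stimulated with 100 nM SNC80; imaging of GFP-tagged beta-arrestin moving into spots after receptor activation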
Sequence of Delta-type opioid receptor (P41143 whole entry): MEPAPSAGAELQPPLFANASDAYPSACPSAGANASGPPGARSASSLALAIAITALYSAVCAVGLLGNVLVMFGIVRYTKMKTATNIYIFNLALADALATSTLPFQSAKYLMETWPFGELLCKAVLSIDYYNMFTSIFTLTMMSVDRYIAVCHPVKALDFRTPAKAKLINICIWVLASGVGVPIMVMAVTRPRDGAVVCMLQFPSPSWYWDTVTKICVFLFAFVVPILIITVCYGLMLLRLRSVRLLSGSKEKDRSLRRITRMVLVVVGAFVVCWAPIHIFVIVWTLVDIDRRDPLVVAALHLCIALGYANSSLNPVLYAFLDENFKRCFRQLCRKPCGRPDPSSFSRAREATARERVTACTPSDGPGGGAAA

[7] = biological target: T4, Kappa-type opioid receptor; assay: SAR analysis of Antagonists of the Kappa Opioid Receptor (KOR) using an Image-Based Assay - Set 4. [Related pubchem assays (depositor defined):AID1777, AID1785]; format: functional
[8] = THP-1 cell cytotoxicity, dose response, cytotoxicity control for non-replicating M. tuberculosis project (AID 489025); format: functional
[9] = Vero E6 cell cytotoxicity, dose response, cytotoxicity control for non-replicating M. tuberculosis project, secondary assay (AID 492998); format: functional, VeroE6; conditions: Vero C1008
X-box-binding protein 1 = X-box-binding protein 1 (Homo sapiens, UniProt P17861); format: functional, Cricetulus griseus;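 note: confirmatory dose-response counter-screen serving a CHOP assay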
Sequence of X-box-binding protein 1 (P17861 whole entry): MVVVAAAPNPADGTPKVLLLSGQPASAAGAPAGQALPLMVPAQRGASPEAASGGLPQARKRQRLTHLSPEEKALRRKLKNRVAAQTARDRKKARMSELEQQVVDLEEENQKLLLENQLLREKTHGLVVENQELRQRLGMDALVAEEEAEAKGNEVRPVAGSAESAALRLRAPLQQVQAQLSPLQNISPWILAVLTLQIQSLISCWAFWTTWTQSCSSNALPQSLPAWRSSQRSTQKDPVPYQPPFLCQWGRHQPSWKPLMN

Sequence of Tumor necrosis factor (P01375 whole entry, the tested form may be a part): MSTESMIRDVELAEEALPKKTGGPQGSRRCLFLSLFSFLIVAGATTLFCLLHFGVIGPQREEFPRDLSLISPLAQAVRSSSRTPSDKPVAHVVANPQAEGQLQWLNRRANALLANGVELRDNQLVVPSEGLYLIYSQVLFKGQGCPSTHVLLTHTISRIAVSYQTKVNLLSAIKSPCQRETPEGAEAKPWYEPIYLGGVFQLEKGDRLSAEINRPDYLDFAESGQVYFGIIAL

In the case of `O=C(Nc1ccc(Br)cc1)c1ccc(CN2CCc3ccccc3C2)cc1`, the IC50 (Tumor necrosis factor) is reported as 1.5 µM (active) and 10.9 µM (active), the IC50 [1] is reported as 1.62 µM (active) and the IC50 (HEK293) is reported as > 20 µM (inactive). The IC50 [2] was 1.03 µM (active) and 399 nM (active).

For `O=c1c2ccccc2sn1-c1ccc(C(F)(F)F)cc1`, the IC50 [3] was 34 µM (inactive), the IC50 (Phosphomannomutase 2) was > 100 µM (inactive) and the IC50 [4] was 41.2 µM (active).

With `CC(C)c1ccc(N(C(=O)C(F)(F)F)C(C(=O)NC2CCCCC2)c2ccncc2)cc1` (stereo not drawn) the AC50 (Cytochrome P450 2C9) was 2.24 µM (inconclusive), the AC50 (Cytochrome P450 3A4) was “inconclusive” and the AC50 (Cytochrome P450 2C19) was 1.12 µM (inconclusive).

In the case of `O=C(Nc1nc2ccccc2n1Cc1ccccc1Cl)c1ccco1`, the IC50 (Tumor necrosis factor) is reported as > 20 µM (inactive), the IC50 [1] is reported as > 20 µM (inactive) and the IC50 (HEK293) is reported as > 20 µM (inactive). For the same compound, the IC50 [2] was > 20 µM (inactive).

For `CN(CCNC(=O)c1ccc(CNS(=O)(=O)c2ccc([N+](=O)[O-])cc2)cc1)Cc1ccccc1`, the IC50 [5] was 12.1 µM (inactive), the IC50 (Mu-type opioid receptor) was 1.69 µM (active) and the IC50 [6] was > 32 µM (inactive). The IC50 [7] was 30.2 µM (inactive).

For `O=c1c2ccccc2sn1-c1nc2ccccc2s1`, the IC50 (Phosphomannomutase 2) was > 100 µM (inactive) and the IC50 [4] was > 50 µM (inactive).

For `C/C(=N\NC(=O)CCc1ccccc1)C1C(=O)c2ccccc2C1=O`, the CC50 [8] was 13.8 µM (active) and the CC50 [9] was 11.8 µM (active).

For `Cc1cc(/C=N/Nc2nc(N)ncc2[N+](=O)[O-])c(C)n1-c1cccc(C(F)(F)F)c1`, the “Absolute IC50 (XBP1)” value (X-box-binding protein 1) was 10 µM.

Reference: ChEMBL document CHEMBL1201862, “PubChem BioAssay data set” (2004)
